Measurements published in patent US6667387B1, “HCV core peptides” (priority 1992, dated 2003).
Ends that are not written are not given here.

How the values were obtained:
[1] = ELISA with seronegative / negative control sera (specificity); assay type: binding, human; conditions: negative serum
Method: (§1) Where peptides were to be coated directly, stock solutions of the peptides were diluted in sodium carbonate buffer, pH 9.6 and used to coat polystyrene microtiter plates at a peptide concentration of 2 to 5 micrograms per milliliter for 1 hour at 37° C.
(§2) In cases where biotinylated peptides were to be evaluated, plates were first coated with streptavidin in sodium carbonate buffer, pH 9.6 at a concentration of 3 micrograms per milliliter for 1 hour at 37° C. The plates were then washed to remove excess, unbound protein. A working solution of the biotinylated peptide at 1 microgram per milliliter in sodium carbonate buffer was then added to the wells of the microtiter plate and incubated for 1 hours at 37° C.
(§3) Once the plates had been coated with antigen, any remaining free binding sites on the plastic were blocked with casein. After washing, a dilution of the appropriate antisera, usually 1:100, was added to the wells of the plates and incubated for 1 hour at 37° C.
(§4) After washing to remove unbound material, specific antibody binding was detected by incubating the plates with goat anti-human immunoglobulin antibodies conjugated to the enzyme horseradish peroxidase. Following removal of unbound conjugate by washing, a solution containing H2O2 and 3,3′,5,5′-tetramethylbenzidine was added.
(§5) Reactions were stopped after a suitable interval by addition of sulfuric acid. […] Absorbance measurements were made at a wavelength of 450 nanometers and all data are expressed as an optical density value at this wavelength.
(§6) Unbiotinylated HCV peptide I was coated directly onto the wells of a polystyrene ELISA plate at a concentration of 3 micrograms per milliliter in sodium carbonate buffer, pH 9.6. Biotinylated HCV peptide I was bound to streptavidin-coated wells using a stock solution containing the peptide at a concentration of 1 microgram per milliliter. The resulting plates were then incubated in parallel with a panel of sera from HCV-seropositive donors. […] Two of the sera (8326 and 8244) recognize the biotinylated version of this peptide far better than the unbiotinylated version. The specificity of the antibody reaction is also reflected by the low optical density values obtained for 5 serum samples from uninfected donors (F88, F89, F76, F136, and F6).
To determine how well biotinylated peptides would function in a mixture when bound to streptavidin- or avidin-coated plates, two mixtures were made of the N-terminally biotinylated versions of the HIV-1 peptides TM-HIV-1 (hereabove referred to as 1a.1) and V3-nm (hereabove referred to as 1b.4), the HIV-2 peptide TM-HIV-2 (hereabove referred to as 2a), and the hepatitis C virus peptides II, IX, and XVIII. Mixture A contained each of the six biotinylated peptides at a concentration of 1 microgram per milliliter (6 micrograms per milliliter peptide, total) while in mixture B, each peptide was present at a concentration of 0.1 microgram per milliliter (0.6 microgram per milliliter peptide, total). The individual peptides were coated at a concentration of 1 microgram per milliliter. For purposes of comparison, mixtures A and B were also coated directly onto the wells of a microtiter plate. Samples from HIV-1, HIV-2, and HCV-seropositive donors were tested and compared to sera from seronegative blood donors. A cut-off absorbance value of 0.250 was used to determine whether a reaction was positive or negative. Absorbance values equal or greater than 0.250 were considered positive while absorbance values below this value were considered negative.

[2] = tested on: antibodies in sera from HCV-seropositive donors; test: ELISA with HCV antibody-positive sera (biotinylated peptides on streptavidin- or avidin-coated plates, unbiotinylated peptides coated directly); assay type: binding, human; conditions: for optical density (450 nm): 20-fold dilution; for PEPTIDE ELISA (O.D.): Table 12, biotinylated 20-mers
Method: as §1, §2, §3, §4, §5
The unbiotinylated peptides were adsorbed onto the wells of polystyrene microtiter plates at a concentration of 3 micrograms per milliliter.
The biotinylated peptides were bound at a concentration of 1 microgram per milliliter to streptavidin-coated microtiter plates. Sera known to contain antibodies to these peptides were used for the evaluation and were tested at a 20-fold dilution.
To investigate further the enhanced antibody recognition of biotinylated HCV peptides bound to streptavidin or avidin as compared to direct adsorption on plastic, the influence of peptide coating concentration was investigated. Three peptides (HCV peptides II, XI, and XVI) were coated in concentrations ranging from 10 nanograms per milliliter to 3 micrograms per milliliter in a volume of 200 microliters per microtiter plate well. For direct coating, the unbiotinylated versions of these peptides were used. The biotinylated versions of these peptides were used to coat wells to which streptavidin had previously been adsorbed. Sera known to contain antibodies to these peptides were used at a dilution of 1 to 100 to evaluate the magnitude of antibody binding.
as §6
To determine how well biotinylated peptides would function in a mixture when bound to streptavidin- or avidin-coated plates, two mixtures were made of the N-terminally biotinylated versions of the HIV-1 peptides TM-HIV-1 (hereabove referred to as 1a.1) and V3-nm (hereabove referred to as 1b.4), the HIV-2 peptide TM-HIV-2 (hereabove referred to as 2a), and the hepatitis C virus peptides II, IX, and XVIII. […]

| Substance | PEPTIDE ELISA (O.D.) ([2]; serum 0843) | PEPTIDE ELISA (O.D.) ([2]; serum 8240) | PEPTIDE ELISA (O.D.) ([2]; serum 8241) | PEPTIDE ELISA (O.D.) ([2]; serum 8242) | PEPTIDE ELISA (O.D.) ([2]; serum 8332) | PEPTIDE ELISA (O.D.) ([2]; serum 8339) | PEPTIDE ELISA (O.D.) ([2]; serum 8350) | PEPTIDE ELISA (O.D.) ([2]; serum 8377) | PEPTIDE ELISA (O.D.) ([2]; serum 8378) | PEPTIDE ELISA (O.D.) ([2]; serum 8388) | optical density (450 nm) ([1]; Table 4A) | optical density (450 nm) ([2]; Table 4A, serum 2) | optical density (450 nm) ([2]; Table 4A, serum 3) | optical density (450 nm) ([2]; Table 4A, serum 4) | optical density (450 nm) ([2]; Table 4A, serum 6) | optical density (450 nm) ([2]; Table 4A, serum 8) | optical density (450 nm) ([2]; Table 4A, serum 10) | optical density (450 nm) ([2]; Table 4A, serum 11) | optical density (450 nm) ([2]; Table 4A, serum 23) | optical density (450 nm) ([2]; Table 4A, serum 31) | also measured |
| --- | --- | --- | --- | --- | --- | --- | --- | --- | --- | --- | --- | --- | --- | --- | --- | --- | --- | --- | --- | --- | --- |
| RNTNRRPQDVKFPGGGQIVG | 2.368 | 2.918 | 2.066 | 2.197 | 2.054 | 2.765 | 2.135 | 2.368 | 2.369 | 2.463 |  |  |  |  |  |  |  |  |  |  | optical density (450 nm) ([1]; Table 4D): 0.06; optical density (450 nm) ([2]; Table 4D, serum 8241): 2.066; optical density (450 nm) ([2]; Table 4D, serum 8242): 2.197; optical density (450 nm) ([2]; Table 4D, serum 8243): 2.368; optical density (450 nm) ([2]; Table 4D, serum 8247): 2.398; optical density (450 nm) ([2]; Table 4D, serum 8248): 2.918; optical density (450 nm) ([2]; Table 4D, serum 8250): 2.626; optical density (450 nm) ([2]; Table 4D, serum 8271): 2.066; optical density (450 nm) ([2]; Table 4D, serum 8272): 2.638; optical density (450 nm) ([2]; Table 4D, serum 8273): 2.697; optical density (450 nm) ([2]; Table 4D, serum 8274): 2.905; optical density (450 nm) ([2]; Table 4D, serum 8275): 2.640; optical density (450 nm) ([2]; Table 4D, serum 8276): 2.674; optical density (450 nm) ([2]; Table 4D, serum 8277): 2.327 |
| SQHLPYIEQGMMLAEQFKQK | 2.268 | 0.182 | 2.280 | 1.625 | 0.575 | 0.043 | 0.623 | 2.227 | 1.449 | 1.018 | 0.095 | 1.971 | 2.086 | 1.976 | 0.518 | 2.624 | 2.321 | 2.378 | 2.503 | 2.104 | optical density (450 nm) ([2]; Table 4A, serum 33): 1.857; optical density (450 nm) ([2]; Table 4A, serum 49): 2.180; optical density (450 nm) ([2]; Table 4A, serum 77): 0.159; antibody binding to the 20-mers ([2]; serum 8241): very strong |
| Ser-Gln-His-Leu-Pro-Tyr-Ile-Glu-Gln-Gly-Met-Met-Leu-Ala-Glu-Gln-Phe-Lys-Gln-Lys [Biotinylated peptide XI] (SQHLPYIEQGMMLAEQFKQK; also: biotinylated) [probably the unbiotinylated peptide XI, acetylated at the amino terminus, coated directly] |  |  |  |  |  |  |  |  |  |  | 0.053 | 0.090 | 0.443 | 0.473 | 0.053 | 1.275 | 0.764 | 0.569 | 0.775 | 0.497 | optical density (450 nm) ([2]; Table 4A, serum 33): 0.832; optical density (450 nm) ([2]; Table 4A, serum 49): 0.515; optical density (450 nm) ([2]; Table 4A, serum 77): 0.093 |
